Experiment: Release of the active ingredient from the particle by lowering of the pH, followed by UV-visible spectrometry
Format: physicochemical
Text: Once the particle was synthesised we verified by UV-visible spectrometry the possibility of releasing the medicament by simple lowering of the pH.

release of the medicament by simple lowering of the pH (lowering of the pH, release from the particle): progressive and controlled release
indomethacin salted out (released) from the particle (pH equal to 3, in 48 hours, indomethacin covalently bonded inside the particle (NB-PCL-POE-OMe stabilised latex)): more than 85%
SMILES: COc1ccc2c(c1)c(CC(=O)O)c(C)n2C(=O)c1ccc(Cl)cc1 [indomethacin]

— patent US20090123555A1, “Stimulateable Polymer Particles Exhibiting Reactive Functions, Method for the Production and the Use Thereof” (CENTRE NATIONAL DE LA RECHER CHE SCIENTIFIQUE, priority 2004, published 2009)
